Assay results published in US20260256792A1, “TREATMENT OF CHRONIC SPONTANEOUS URTICARIA BY ADMINISTERING (R)-2-[3-[4-AMINO-3-(2-FLUORO-4-PHENOXY-PHENYL)PYRAZOLO[3,4-D]PYRIMIDIN-1-YL]PIPERIDINE-1-CARBONYL]-4-METHYL-4-[4-(OXETAN-3-YL)PIPERAZIN-1-YL]PENT-2-ENENITRILE” (priority 2023, published 2026).

Test system: moderate-to-severe chronic spontaneous urticaria (CSU)
Assay: Phase 2 CSU study: hives severity score over 7 days (HSS7)
Assay type: in vivo, human
Set-up: key to HSS7 Change from baseline, Median / HSS7, Median / HSS7, Max / HSS7 Change from baseline, Q1 / HSS7 Change from baseline, Q3 / HSS7 Change from baseline, Max: 7-day sum of daily hive scores, each 0 = none to 3 = >50 hives
Description: The study comprises a 12 week, randomized, double-blind, placebo-controlled, multi-center, dose-ranging efficacy and safety phase, followed by a 40 week open label extension (OLE) phase (see FIG. 1).
The study consists of three phases and an optional OLE phase.
The UAS is a validated PRO measure. The daily UAS is the sum of the daily Hive Severity Score (HSS, ranging from 0=None to 3=more than 50 hives) and the daily Itch Severity Score (ISS, ranging from 0=None to 3=intense), the 2 key urticaria signs and symptoms which are wheals and itch. The daily UAS scores range from 0 to 6 point/day. Daily UAS scores are summed over 7-day period to create the UAS7, ranging from 0 to 42, and are composed of the HSS7 and ISS7 components. […] Patients were to complete the UAS using the e-diary. The e-diary was to be used once daily on the same time of each day recording of participant's answers to the urticaria activity score over 7 days (UAS7) questionnaire. For participants who entered the OLE phase, their answers to the UAS7 questionnaire were also to be collected from Week 20 to Week24 and from Week 48 to Week 52.
The following secondary endpoints were to be analyzed using the same approach as for the primary endpoint: • Change from baseline in UAS7 at Week 4 • Change from baseline in UAS7 at Week 12 (for US and US reference countries) • Change from baseline in ISS7 at Week 12 (except US and US reference countries) • Change from baseline in HSS7 at Week 12

[1] = Week 4, 400 mg BID, Omalizumab-Naïve Population
[2] = Week 4, 400 mg BID, Patients with Prior Omalizumab Use
[3] = Week 4, 400 mg QPM, Omalizumab-Naïve Population
[4] = Week 4, 400 mg QPM, Patients with Prior Omalizumab Use
[5] = Week 4, 400 mg TID, Omalizumab-Naïve Population
[6] = Week 4, 400 mg TID, Patients with Prior Omalizumab Use
[7] = Week 5, 400 mg BID, Omalizumab-Naïve Population
[8] = Week 5, 400 mg BID, Patients with Prior Omalizumab Use
[9] = Week 5, 400 mg QPM, Omalizumab-Naïve Population
[10] = Week 5, 400 mg QPM, Patients with Prior Omalizumab Use
[11] = Week 5, 400 mg TID, Omalizumab-Naïve Population
[12] = Week 5, 400 mg TID, Patients with Prior Omalizumab Use
[13] = Week 6, 400 mg BID, Omalizumab-Naïve Population
[14] = Week 6, 400 mg BID, Patients with Prior Omalizumab Use
[15] = Week 6, 400 mg QPM, Omalizumab-Naïve Population
[16] = Week 6, 400 mg QPM, Patients with Prior Omalizumab Use
[17] = Week 6, 400 mg TID, Omalizumab-Naïve Population
[18] = Week 6, 400 mg TID, Patients with Prior Omalizumab Use

CC(C)(C=C(C#N)C(=O)N1CCC[C@@H](n2nc(-c3ccc(Oc4ccccc4)cc3F)c3c(N)ncnc32)C1)N1CCN(C2COC2)CC1 [rilzabrutinib, (R)-2-[3-[4-amino-3-(2-fluoro-4-phenoxy-phenyl)pyrazolo[3,4-d]pyrimidin-1-yl]piperidine-1-carbonyl]-4-methyl-4-[4-(oxetan-3-yl)piperazin-1-yl]pent-2-enenitrile]
HSS7, Mean (SD) [1]: 7.60 (6.00) | HSS7, Median [1]: 7.00 | HSS7 Change from baseline, Mean (SD) [1]: −6.54 (5.34) | HSS7 Change from baseline, Median [1]: −6.00 | HSS7 Percent change from baseline, Mean (SD) [1]: −47.44 (37.17) % | HSS7 Percent change from baseline, Median [1]: −42.86% | HSS7, Mean (SD) [2]: 6.80 (8.04) | HSS7, Median [2]: 2.00 | HSS7 Change from baseline, Mean (SD) [2]: −10.00 (8.34) | HSS7 Change from baseline, Median [2]: −12.00 | HSS7 Percent change from baseline, Mean (SD) [2]: −60.22 (47.52) % | HSS7 Percent change from baseline, Median [2]: −88.24% | HSS7 Change from baseline, Mean (SD) [3]: −4.20 (4.74) | HSS7 Change from baseline, Median [3]: −3.00 | HSS7 Percent change from baseline, Mean (SD) [3]: −26.30 (29.41) % | HSS7 Percent change from baseline, Median [3]: −16.67% | HSS7, Mean (SD) [4]: 10.00 (NC) | HSS7 Change from baseline, Mean (SD) [4]: −10.00 (NC) | HSS7 Change from baseline, Median [4]: −10.00 | HSS7 Percent change from baseline, Mean (SD) [4]: −50.00 (NC) % | HSS7 Percent change from baseline, Median [4]: −50.00% | HSS7, Mean (SD) [5]: 6.85 (4.96) | HSS7, Median [5]: 6.50 | HSS7 Change from baseline, Mean (SD) [5]: −7.21 (5.24) | HSS7 Change from baseline, Median [5]: −6.58 | HSS7 Percent change from baseline, Mean (SD) [5]: −50.43 (33.03) % | HSS7 Percent change from baseline, Median [5]: −50.69% | HSS7, Mean (SD) [6]: 3.92 (4.26) | HSS7, Median [6]: 3.17 | HSS7 Change from baseline, Mean (SD) [6]: −12.11 (6.81) | HSS7 Change from baseline, Median [6]: −12.42 | HSS7 Percent change from baseline, Mean (SD) [6]: −73.06 (22.97) % | HSS7 Percent change from baseline, Median [6]: −76.19% | HSS7, Mean (SD) [7]: 8.34 (6.75) | HSS7, Median [7]: 7.00 | HSS7 Change from baseline, Mean (SD) [7]: −6.01 (5.82) | HSS7 Change from baseline, Median [7]: −7.00 | HSS7 Percent change from baseline, Mean (SD) [7]: −43.27 (41.28) % | HSS7 Percent change from baseline, Median [7]: −42.86% | HSS7, Mean (SD) [8]: 4.25 (8.50) | HSS7, Median [8]: 0.00 | HSS7 Change from baseline, Median [8]: −14.50 | HSS7 Percent change from baseline, Mean (SD) [8]: −75.00 (50.00) % | HSS7 Percent change from baseline, Median [8]: −100.00% | HSS7, Mean (SD) [9]: 9.63 (5.13) | HSS7, Median [9]: 8.20 | HSS7 Change from baseline, Mean (SD) [9]: −5.12 (5.22) | HSS7 Change from baseline, Median [9]: −3.50 | HSS7 Percent change from baseline, Mean (SD) [9]: −32.44 (31.06) % | HSS7 Percent change from baseline, Median [9]: −26.11% | HSS7, Mean (SD) [10]: 8.00 (NC) | HSS7, Median [10]: 8.00 | HSS7 Change from baseline, Mean (SD) [10]: −12.00 (NC) | HSS7 Change from baseline, Median [10]: −12.00 | HSS7 Percent change from baseline, Mean (SD) [10]: −60.00 (NC) % | HSS7 Percent change from baseline, Median [10]: −60.00% | HSS7, Mean (SD) [11]: 6.49 (5.14) | HSS7, Median [11]: 6.00 | HSS7 Change from baseline, Mean (SD) [11]: −7.57 (5.71) | HSS7 Change from baseline, Median [11]: −7.00 | HSS7 Percent change from baseline, Mean (SD) [11]: −52.28 (34.93) % | HSS7 Percent change from baseline, Median [11]: −50.00% | HSS7, Mean (SD) [12]: 3.42 (4.45) | HSS7, Median [12]: 2.50 | HSS7 Change from baseline, Mean (SD) [12]: −12.61 (7.49) | HSS7 Change from baseline, Median [12]: −12.00 | HSS7 Percent change from baseline, Mean (SD) [12]: −75.12 (24.22) % | HSS7 Percent change from baseline, Median [12]: −75.37% | HSS7, Mean (SD) [13]: 8.17 (6.62) | HSS7, Median [13]: 7.00 | HSS7 Change from baseline, Mean (SD) [13]: −6.17 (6.01) | HSS7 Change from baseline, Median [13]: −6.42 | HSS7 Percent change from baseline, Mean (SD) [13]: −43.56 (44.25) % | HSS7 Percent change from baseline, Median [13]: −47.73% | HSS7, Mean (SD) [14]: 5.97 (7.25) | HSS7, Median [14]: 3.50 | HSS7 Change from baseline, Mean (SD) [14]: −8.83 (9.41) | HSS7 Change from baseline, Median [14]: −12.00 | HSS7 Percent change from baseline, Mean (SD) [14]: −50.00 (62.36) % | HSS7 Percent change from baseline, Median [14]: −83.33% | HSS7, Mean (SD) [15]: 9.94 (5.76) | HSS7, Median [15]: 8.28 | HSS7 Change from baseline, Mean (SD) [15]: −5.20 (5.64) | HSS7 Change from baseline, Median [15]: −4.50 | HSS7 Percent change from baseline, Mean (SD) [15]: −33.60 (35.00) % | HSS7 Percent change from baseline, Median [15]: −37.09% | HSS7, Mean (SD) [16]: 8.00 (NC) | HSS7, Median [16]: 8.00 | HSS7 Change from baseline, Mean (SD) [16]: −12.00 (NC) | HSS7 Change from baseline, Median [16]: −12.00 | HSS7 Percent change from baseline, Mean (SD) [16]: −60.00 (NC) % | HSS7 Percent change from baseline, Median [16]: −60.00% | HSS7, Mean (SD) [17]: 6.78 (5.55) | HSS7, Median [17]: 6.00 | HSS7 Change from baseline, Mean (SD) [17]: −7.22 (6.24) | HSS7 Change from baseline, Median [17]: −7.00 | HSS7 Percent change from baseline, Mean (SD) [17]: −49.49 (37.97) % | HSS7 Percent change from baseline, Median [17]: −46.15% | HSS7, Mean (SD) [18]: 2.83 (4.62) | HSS7, Median [18]: 1.00 | HSS7 Change from baseline, Mean (SD) [18]: −13.19 (6.97) | HSS7 Change from baseline, Median [18]: −13.00 | HSS7 Percent change from baseline, Mean (SD) [18]: −81.39 (23.52) % | HSS7 Percent change from baseline, Median [18]: −91.50%
